Activity calls are given as the source filed them. No cut-off for these calls is given here.
Columns and labels:
Cytochrome P450 2C9 = Cytochrome P450 2C9 (Homo sapiens, UniProt P11712); assay: Inhibition of CYP2C9 in human liver microsomes using diclofenac as substrate in presence of NADPH by LC/MS/MS analysis; assay type: ADME
[1] = Cmax in CD-1 mouse at 10 mg/kg, po by LC/MS/MS analysis; assay type: ADME, organism-based; design: dose 10 mg/kg, route oral; settings: in vivo
NCI-H2228 [2] = assay: Antitumor activity against human NCI-H2228 cells expressing EML4-ALK xenografted in SCID-Beige mouse assessed as reduction in tumor volume at 30 mg/kg, po bid administered for 11 days measured during compound dosing; assay type: functional, organism-based
NCI-H2228 [3] = assay: Antitumor activity against human NCI-H2228 cells expressing EML4-ALK xenografted in SCID-Beige mouse assessed as reduction in tumor volume at 55 mg/kg, po bid administered for 11 days measured during compound dosing; assay type: functional, organism-based
[4] = Drug level in plasma of FAK expressing human CWR22 cells xenografted Nu/Nu mouse at 55 mg/kg, po administered as single dose measured at 6 hrs by LC-MS/MS analysis; assay type: ADME, organism-based
CTG-0142 = assay: Antitumor activity against human CTG-0142 cells expressing activated FAK xenografted in mouse assessed as tumor stasis at 55 mg/kg, po bid administered for 28 days measured during compound dosing; assay type: functional, organism-based

Sequence of Cytochrome P450 2C9 (P11712 whole entry): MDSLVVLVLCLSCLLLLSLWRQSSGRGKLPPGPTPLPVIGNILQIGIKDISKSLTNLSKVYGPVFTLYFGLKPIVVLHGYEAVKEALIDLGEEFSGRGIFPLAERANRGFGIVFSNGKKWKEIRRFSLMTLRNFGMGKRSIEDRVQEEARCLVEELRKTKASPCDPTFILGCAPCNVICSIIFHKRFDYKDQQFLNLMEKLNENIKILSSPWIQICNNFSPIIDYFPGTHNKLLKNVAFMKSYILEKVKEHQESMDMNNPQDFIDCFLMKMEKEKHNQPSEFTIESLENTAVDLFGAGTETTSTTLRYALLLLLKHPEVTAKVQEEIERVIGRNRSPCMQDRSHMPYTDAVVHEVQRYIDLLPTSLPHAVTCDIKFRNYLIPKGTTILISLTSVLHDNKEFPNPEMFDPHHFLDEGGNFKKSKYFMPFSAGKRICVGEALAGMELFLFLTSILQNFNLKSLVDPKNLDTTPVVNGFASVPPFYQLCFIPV

Compound: CNC(=O)c1ccccc1Nc1nc(Nc2ccc3c(c2OC)CCC[C@H](N2CCN(CCO)CC2)C3)ncc1Cl [CEP-37440]
- IC50 (Cytochrome P450 2C9): > 5.6 µM
- Cmax [1]: 1530 ng/mL
- Activity (NCI-H2228 [2]): Active
- Activity (NCI-H2228 [3]): Active
- concentration at 6 h [4]: 3790 ng/mL
- Activity (CTG-0142): Active

Source: ChEMBL document CHEMBL3856231 (J Med Chem, 2016)
